US8129527B2, “Analogs of dehydrophenylahistins and their therapeutic use” (Nereus Pharmacuticals, Inc., priority 2006, dated 2012)
Converted amounts (≈) assume the structure as drawn. Where two headings read alike, the source gives them in different places. Marks after values point to notes of the source that are not given here.

Columns and labels:
[1] = system: HT-29 human colon tumor; assay: HT-29 Human Colon Tumor Xenograft Model; type: in vivo; details: for Chemotherapeutic Agent Result TGI %: CPT-11 alone 100 ip qwx3
Experimental: Selected novel compounds were administered as monotherapy via the intraperitoneal (i.p.) route at the doses indicated for the individual study; for the combination studies the selected reference chemotherapy agents were injected 15-30 min prior to the compound.
Saline dilutions are used to achieve the injection concentrations used for the reference compounds.
Animals were implanted subcutaneously (s.c.) by trocar with fragments of HT-29 tumors harvested from s.c. growing tumors in nude mice hosts. When the tumor size reached 5 mm×5 mm (about 10-17 days) the animals were matched into treatment and control groups. Mice were weighed twice weekly and tumor measurements were obtained using calipers twice weekly, starting on Day 1. The tumor measurements were converted to estimated mg tumor weight using the formula (W^2×L)/2. When the estimated tumor weight of the control group reached an average of 1000 mg the mice were weighed, sacrificed and the tumor removed.

[2] = system: HT-29 human colon cells; assay: Tumor cytotoxicity assay, resazurin fluorescence, 48 h (Example 6); type: cell-based; details: for EC50: Homo sapiens; for cytotoxic activity against HT-29 cells: in words
[3] = system: Trichophyton rubrum; assay: Antifungal susceptibility testing, broth dilution (MIC/MFC); type: cell-based; details: Trichophyton species
Experimental: (§1) Specifically, disclosed compounds were evaluated alongside commercially available microtubulin inhibitors as well as recognized antifungal agents.
(§2) Microorganisms against which these compounds were tested included: Candida albicans, Candida glabrata, Aspergillus fumigatus, Trichophyton rubrum, Trichophyton mentagrophytes, Epidermophyton floccosum. With the exception of Candida glabrata (one isolate), two isolates of each species were tested.
(§3) The minimum lethal concentration (MLC) was determined by plating […] from the MIC concentration and each concentration above the MIC. […] When a MIC was obtained, a minimum fungicidal concentration (MFC) was determined to assess the fungistatic/fungicidal nature of the compound.

[4] = system: Aspergillus fumigatus; assay: as above; type: cell-based; details: Aspergillus fumigatus, A. fumigatus isolate #1; read-out: MIC
Experimental: as §1, §2, §3

[5] = Colon HT-29 (3 studies), CPT-11 Days 1, 8, 15 alone

Structure (SMILES)	melting point [°C]	other results
Cc1ccccc1/C=c1\[nH]c(=O)/c(=C/c2ncoc2C(C)(C)C)[nH]c1=O	177 to 179	
CC(C)(C)c1ocnc1/C=c1\[nH]c(=O)/c(=C/c2cccc(C(=O)c3ccccc3)c2)[nH]c1=O	151 to 153	
CCc1c2c(nc3ccc(OC(=O)N4CCC(N5CCCCC5)CC4)cc13)-c1cc3c(c(=O)n1C2)COC(=O)[C@]3(O)CC [CPT-11, Irinotecan, reference compound]		Tumor Growth Inhibition (%) Reference Agent [1, 5]: 37 ± 3%; Tumor Regression (#/total) Reference Agent [1, 5]: 0/30; Chemotherapeutic Agent Result TGI % ([1]; Study 2139): 32.7%; Chemotherapeutic Agent Result TGI % ([1]; Study 2164): 39* %; Chemotherapeutic Agent Result TGI % ([1]; Study 2288): 36.5* %; TGI vs NCI criterion ([1]; study of KPU-2, KPU-35 and t-butyl-phenylahistin +/- CPT-11): did not reach this level
COc1cc(/C=c2\[nH]c(=O)/c(=C/c3nc[nH]c3C(C)(C)C)[nH]c2=O)cc(OC)c1OC [KPU-11, tBu-ΔPLH-3,4,5-triOMe]		EC50 ([2]; HT-29, read-out: EC50 HT-29, Table 3, cells printed in μM): > 20 µM; cytotoxic activity against HT-29 cells [2]: also showed activity; antifungal potency compared with griseofulvin [3]: equivalent in potency or in some cases more potent than griseofulvin
COc1ccc(/C=c2\[nH]c(=O)/c(=C/c3nc[nH]c3C(C)(C)C)[nH]c2=O)c(OC)c1OC [KPU-17, tBu-ΔPLH-2,3,4-triOMe]		EC50 ([2]; HT-29, Table 3, read-out: EC50 (nM) HT-29): 4.06 µM; cytotoxic activity against HT-29 cells [2]: also showed activity; antifungal potency compared with griseofulvin [3]: equivalent in potency or in some cases more potent than griseofulvin
COc1cc(/C=c2\[nH]c(=O)/c(=C/c3ncoc3C(C)(C)C)[nH]c2=O)cc(OC)c1 [KPU-208, 3-{(Z)-1-[5-(tert-Butyl)-1H-4-oxazolyl]methylidene}-6-[(Z)-1-(3,5-dimethoxyphenyl)methlidene]-2,5-piperazinedione]	171 to 173	
CC(C)(C)c1ocnc1/C=c1\[nH]c(=O)/c(=C/CCc2ccccc2)[nH]c1=O [KPU-228, 3-{(Z)-1-[5-(tert-Butyl)-1H-4-oxazolyl]methylidene}-6-[(Z)-1-(phenylpropyl)methlidene]-2,5-piperazinedione]	180 to 182	
CCOc1ccc2ccccc2c1/C=c1\[nH]c(=O)/c(=C/c2ncoc2C(C)(C)C)[nH]c1=O [KPU-229, 3-{(Z)-1-[5-(tert-Butyl)-1H-4-oxazolyl]methylidene}-6-[(Z)-1-(2-ethoxy-1-naphthyl)methlidene]-2,5-piperazinedione]	201 to 203	
CC(C)(C)c1ocnc1/C=c1\[nH]c(=O)/c(=C/c2c3ccccc3cc3ccccc23)[nH]c1=O [KPU-231, 3-{(Z)-1-[5-(tert-Butyl)-1H-4-oxazolyl]methylidene}-6-[(Z)-1-(9-anthryl)methlidene]-2,5-piperazinedione]	274 to 276	
CC(C)(C)c1ocnc1/C=c1\[nH]c(=O)/c(=C/c2ccc(-c3cccs3)s2)[nH]c1=O [KPU-234, 3-{(Z)-1-[5-(tert-Butyl)-1H-4-oxazolyl]methylidene}-6-[(Z)-1-(2,2′-bithienyl)methlidene]-2,5-piperazinedsione]	212 to 214	
CC(C)(C)c1ocnc1/C=c1\[nH]c(=O)/c(=C/c2cn(S(=O)(=O)c3ccccc3)c3ccccc23)[nH]c1=O [KPU-239, 3-{(Z)-1-[5-(tert-Butyl)-1H-4-oxazolyl]methylidene}-6-[(Z)-1-(phenylsulfonyl-3-indolyl)methlidene]-2,5-piperazinedione]	133 to 135	
CCC(C)n1ncn(-c2ccc(N3CCN(c4ccc(OCC5COC(Cn6cncn6)(c6ccc(Cl)cc6Cl)O5)cc4)CC3)cc2)c1=O (centres unmarked) [itraconazole, Itraconazole, reference compound]		MIC [4]: 1 µg/mL (≈ 1.42 µM)
CC(C)(C)c1[nH]cnc1/C=C1\NC(=O)[C@H](Cc2ccccc2)NC1=O [t-butylphenylahistin]		antifungal potency compared with griseofulvin [3]: equivalent in potency or in some cases more potent than griseofulvin

Second part, led by results:

melting point [°C]	Structure (SMILES)	other results
143 to 145	CC(C)(C)c1ocnc1/C=c1\[nH]c(=O)/c(=C/c2cccc(F)c2)[nH]c1=O [KPU-202, 3-{(Z)-1-[5-(tert-Butyl)-1H-4-oxazolyl]methylidene}-6-[(Z)-1-(3-fluorophenyl)methylidene]-2,5-piperazinedione]	
166 to 168	CC(C)(C)c1ocnc1/C=c1\[nH]c(=O)/c(=C/c2ccccc2Cl)[nH]c1=O [KPU-204, 3-{(Z)-1-[5-(tert-Butyl)-1H-4-oxazolyl]methylidene}-6-[(Z)-1-(2-chlorophenyl)methlidene]-2,5-piperazinedione]	
202 to 204	CC(C)(C)c1ocnc1/C=c1\[nH]c(=O)/c(=C/c2cc(Cl)cc(Cl)c2)[nH]c1=O [KPU-209, 3-{(Z)-1-[5-(tert-Butyl)-1H-4-oxazolyl]methylidene}-6-[(Z)-1-(3,5-dichlorophenyl)methlidene]-2,5-piperazinedione]	
124 to 126	CCOc1cccc(/C=c2\[nH]c(=O)/c(=C/c3ncoc3C(C)(C)C)[nH]c2=O)c1 [KPU-210, 3-{(Z)-1-[5-(tert-Butyl)-1H-4-oxazolyl]methylidene}-6-[(Z)-1-(3-ethoxyphenyl)methlidene]-2,5-piperazinedione]	
170 to 172	CC(C)(C)c1ocnc1/C=c1\[nH]c(=O)/c(=C/c2cccc(Br)c2)[nH]c1=O [KPU-212, 3-{(Z)-1-[5-(tert-Butyl)-1H-4-oxazolyl]methylidene}-6-[(Z)-1-(3-bromophenyl)methlidene]-2,5-piperazinedione]	
170 to 172	CC(C)(C)c1ocnc1/C=c1\[nH]c(=O)/c(=C/c2ccccc2F)[nH]c1=O [KPU-214, 3-{(Z)-1-[5-(tert-Butyl)-1H-4-oxazolyl]methylidene}-6-[(Z)-1-(2-fluorophenyl)methlidene]-2,5-piperazinedione]	
149 to 151	CC(C)(C)c1ocnc1/C=c1\[nH]c(=O)/c(=C/c2ccccc2[N+](=O)[O-])[nH]c1=O [KPU-215, 3-{(Z)-1-[5-(tert-Butyl)-1H-4-oxazolyl]methylidene}-6-[(Z)-1-(2-nitrophenyl)methlidene]-2,5-piperazinedione]	
187 to 189	CC(C)(C)c1ocnc1/C=c1\[nH]c(=O)/c(=C/c2cccc(OC(F)(F)F)c2)[nH]c1=O [KPU-216, 3-{(Z)-1-[5-(tert-Butyl)-1H-4-oxazolyl]methylidene}-6-[(Z)-1-(3-trifluoromethoxyphenyl)methlidene]-2,5-piperazinedione]	
164 to 166	CC(C)(C)c1ocnc1/C=c1\[nH]c(=O)/c(=C/c2ccoc2)[nH]c1=O [KPU-217, 3-{(Z)-1-[5-(tert-Butyl)-1H-4-oxazolyl]methylidene}-6-[(Z)-1-(3-furyl)methlidene]-2,5-piperazinedione]	
142 to 144	Cc1ccsc1/C=c1\[nH]c(=O)/c(=C/c2ncoc2C(C)(C)C)[nH]c1=O [KPU-219, 3-{(Z)-1-[5-(tert-Butyl)-1H-4-oxazolyl]methylidene}-6-[(Z)-1-(3-methyl-2-thienyl)methlidene]-2,5-piperazinedione]	
151 to 153	COc1ccccc1/C=c1\[nH]c(=O)/c(=C/c2ncoc2C(C)(C)C)[nH]c1=O [KPU-224, 3-{(Z)-1-[5-(tert-Butyl)-1H-4-oxazolyl]methylidene}-6-[(Z)-1-(2-methoxyphenyl)methlidene]-2,5-piperazinedione]	
155 to 157	CC(C)(C)c1ocnc1/C=c1\[nH]c(=O)/c(=C/c2ccsc2)[nH]c1=O [KPU-226, 3-{(Z)-1-[5-(tert-Butyl)-1H-4-oxazolyl]methylidene}-6-[(Z)-1-(3-thienyl)methlidene]-2,5-piperazinedione]	
234 to 236	COc1ccc2ccccc2c1/C=c1\[nH]c(=O)/c(=C/c2ncoc2C(C)(C)C)[nH]c1=O [KPU-230, 3-{(Z)-1-[5-(tert-Butyl)-1H-4-oxazolyl]methylidene}-6-[(Z)-1-(2-methoxy-1-naphthyl)methlidene]-2,5-piperazinedione]	
185 to 187	CC(C)(C)c1ocnc1/C=c1\[nH]c(=O)/c(=C/c2cc(F)cc(F)c2F)[nH]c1=O [KPU-235, 3-{(Z)-1-[5-(tert-Butyl)-1H-4-oxazolyl]methylidene}-6-[(Z)-1-(2,3,5-trifluorophenyl)methylidene]-2,5-piperazinedione]	
194 to 196	CC(C)(C)c1ocnc1/C=c1\[nH]c(=O)/c(=C/c2c(F)c(F)cc(F)c2F)[nH]c1=O [KPU-236, 3-{(Z)-1-[5-(tert-Butyl)-1H-4-oxazolyl]methylidene}-6-[(Z)-1-(2,3,5,6-tetrafluorophenyl)methlidene]-2,5-piperazinedione]	
212 to 214	CC(C)(C)c1ocnc1/C=c1\[nH]c(=O)/c(=C/c2c(F)ccc(F)c2F)[nH]c1=O [KPU-238, 3-{(Z)-1-[5-(tert-Butyl)-1H-4-oxazolyl]methylidene}-6-[(Z)-1-(2,36-trifluorophenyl)methlidene]-2,5-piperazinedione]	
